Test results taken from US20230293699A1, “USE OF A BORON CLUSTER AS TRANSMEMBRANE CARRIER” (CONSTRUCTOR UNIVERSITY BREMEN GGMBH, priority 2020, published 2023).

What was measured:
[1] = Transport of a bioactive molecule through a membrane by fused, multinuclear and iodinated clusters
Source text: Also fused boron clusters and multinuclear boron clusters were successfully used as transporters for a bioactive molecule through a membrane.

[2] = tested on: Escherichia coli Top10 strain; assay: E. coli Top10 viability with kanamycin A and B1; type: cell-based
Protocol: Bar graphs (left) and time course (right) of E. coli Top10 viability in the presence of different concentrations of kanamycin monosulfate (0, 2500, 3000 or 3500 nM) and B1 (0, 500, 750 or 1000 μM) in LB broth at 37° C.; error bars (shown on the right) refer to the standard deviation (n=3; V (%): E. coli Top10 viability, [KA] […]
For kanamycin A, effective passage through the cell membrane into the cytosol is essential to reach its intracellular targets. […] In the absence of the cluster, E. coli retained viability (60%), which disappeared almost completely (<5%) in the presence of the antibiotics carrier (FIG. 5). The enhanced antibiotic activity is attributed to the boron cluster's carrier potential as all other factors were left the same.

[3] = HPTS/DPX vesicle transport assay; type: biochemical; details: for transport of heptaarginine across the lipid membrane of the vesicles: cargo heptaarginine (H-Trp-Arg7-OH), HPTS fluorescence increase; for transport of positive, zwitterionic and neutral cargo into vesicles: cargo: singly charged, neutral biomolecules, vitamins, antibiotics, neuromuscular blocking agents, proteins
Source text: A: Heptaarginine, B: Heptalysine, C: Protamine, D: Acethylcholine, E: Pancuronium, F: Vecuronium, G: Vitamin B1, H: Ranitidin, I: Tryptophan, J: Ampicilin, K: Phenylalanine, L: Phalloidin, M: Glutamic acid, and N: Bovine albumin. +: positively charged cargos, +/−: zwitterionic cargos, ©: neutral cargo, and −: negatively charged cargos;
A hydrophilic heptaarginine peptide (H-Trp-Arg7-OH) which is unable to spontaneously translocate across neutral phosphocholine lipid vesicles in the absence of counterion activators was used as prototype for cationic cell-penetrating molecular scaffolds (peptides and polymers). The capability of boron clusters to activate the transport of the heptaarginine peptide (H-Trp-Arg7-OH) was investigated first in large unilamellar vesicles (LUVs). The HPTS/DPX assay, that uses 8-hydroxypyrene-1,3,6-trisulfonate and p-xylene-bis-pyridinium, was implemented to monitor peptide-transport activation by the clusters. This assay not only reports on the potential of a synthetic carrier to transport the positively charged peptide into a vesicle, but also to shuttle the cationic quencher DPX to the outside.
Transport can accordingly be monitored, and the activator efficacy quantified, by a time-resolved fluorescence increase at different concentrations of the carrier.
HTPS emission was monitored during the sequential addition of the globular cluster carrier and peptide cargo; a strong detergent (Triton® X-100) was added at the end to affect vesicle lysis and complete dye release that allowed a normalization of the fluorescence intensity data.
This was validated in vesicle transport experiments, which included targets which have not been previously accessible to other non-covalent synthetic carriers or counterion activators. The targets included singly charged, zwitterionic, and neutral biomolecules (such as acetylcholine and amino acids), vitamins, antibiotics, neuromuscular blocking agents and proteins.

[4] = tested on: HeLa cells; assay: Tm-Arg8 endosomal escape by confocal fluorescence microscopy; type: cell-based
Protocol: Cells were incubated with 1 μM Tm-Arg8 and 0 (left picture) or 10 μM clusters diluted in HKR buffer for 1 hour, washed twice with HKR buffer, and imaged by confocal fluorescence microscopy; Images show TAMRA fluorescence (light gray) and the brightfield in the inset pictures; scale bars: 50 μm;
The potential of boron clusters to trigger the endosomal escape into live cells was first studied for oligocationic peptides as cargo. As a prototype, the octaarginine peptide labelled with carboxytetramethylrhodamine (Tm-Arg8) was selected, which at low concentrations (i.e., 1 μM) enters cells by endocytosis and remains trapped in the intracellular compartments. The cytosolic delivery of Tm-Arg8 was followed by confocal microscopy in the presence and absence of superchaotropic boron clusters (FIG. 4).

[5] = tested on: mammalian cell; assay: Mammalian cell survival; type: cell-based; details: 500 μM
[6] = target: T1, Cereblon E3 Ligase (Homo sapiens, UniProt Q96SW2); assay: NanoBRET TE Intracellular E3 Ligase Assay (CRBN target engagement); type: cell-based; details: dBET1 in presence vs absence of B1 (0, 25, 50 μM)
T1 construct: expressed in transfected cells
Protocol: Crossbars and error bars indicate mean and standard deviation; values obtained in each experimental value are represented with a different shape;
For dBET1, a PROTAC with known low permeability, it was shown that B1 enhances its activity. The internalization of this PROTAC in the absence and presence of the cluster was assessed by its ability to bind to the Cereblon E3 Ligase by using a NanoBRET™ TE Intracellular E3 Ligase Assay. Enhanced uptake of dBET1 was observed (factor 2-3 decrease in IC50 value).

T1 sequence (Q96SW2 whole entry): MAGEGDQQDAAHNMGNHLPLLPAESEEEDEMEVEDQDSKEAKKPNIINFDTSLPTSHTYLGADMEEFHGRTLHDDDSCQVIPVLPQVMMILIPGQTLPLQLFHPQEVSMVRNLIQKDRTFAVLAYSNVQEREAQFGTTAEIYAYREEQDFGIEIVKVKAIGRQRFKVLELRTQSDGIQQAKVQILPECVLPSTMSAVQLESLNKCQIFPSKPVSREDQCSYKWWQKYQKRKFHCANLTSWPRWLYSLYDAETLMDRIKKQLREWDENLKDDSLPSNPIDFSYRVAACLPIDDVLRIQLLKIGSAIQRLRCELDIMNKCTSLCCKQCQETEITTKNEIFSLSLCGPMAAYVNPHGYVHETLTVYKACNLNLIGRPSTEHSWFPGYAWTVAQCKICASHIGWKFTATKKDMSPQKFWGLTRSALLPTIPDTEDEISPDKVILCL

In the case of 8,8′-I2-(1,2-C2B9H10)2-3,3′-Co^− [CS6], the “use as transporter / active cluster for a bioactive molecule through a membrane” value (from here on “use as transporter / active cluster”) [1] is reported as “successfully used as active clusters”.

With `NC[C@H]1O[C@H](O[C@H]2[C@H](O)[C@@H](O[C@H]3O[C@H](CO)[C@@H](O)[C@H](N)[C@H]3O)[C@H](N)C[C@@H]2N)[C@H](O)[C@@H](O)[C@@H]1O` [kanamycin A] the viability at 3.5 µg/mL ([2]; Escherichia coli, TOP10STRAIN, read-out: E. coli viability) was 60% and the “antibiotic effectiveness in bacteria” value ([2]; antibiotic transported by boron cluster) was “increased its effectiveness”.

With B12Br11—O-n-C3H7^2− [B2] the “transport of heptaarginine across the lipid membrane of the vesicles” value [3] was “little influence”.

For B12H11NBD^− [B3], the “Tm-Arg8 peptide endosomal escape (diffuse cytosolic fluorescence)” value ([4]; 1 μM Tm-Arg8, 10 μM cluster, HKR buffer, 1 hour) was “excellent peptide endosomal escape”, the “peptide and cluster colocalization” value ([4]; fluorescent cluster with Tm-Arg8) was “significant peptide and cluster colocalization” and the “transport of heptaarginine across the lipid membrane of the vesicles” value [3] was “efficient transport”.

With pyrene butyrate [reference compound] the “fluorescence response (transport) of zwitterionic or neutral analytes” value ([3]; analytes acetylcholine, tryptophan, ampicillin, vecuronium and phalloidin, comparison activator) was “None of the selected, zwitterionic or neutral, analytes (acetylcholine, tryptophan, ampicillin, vecuronium and phalloidin) showed any fluorescence response”.

With (1,7-C2B9H11)2-2,2′-Co^− [CS2] the “use as transporter / active cluster” value [1] was “successfully used as active clusters”.

In the case of B12Br12^2−, the “compatibility with mammalian cell survival” value [5] is reported as “compatible with mammalian cell survival”, the “decrease in IC50 value of dBET1” value [6] is reported as 2-3 factor and the E. coli viability ([2]; kanamycin A 3.5 μg/ml in the presence of B1 500 μM) is reported as < 5%. For the same compound, the “transport of negatively charged cargo into vesicles” value ([3]; cargo glutamate and albumin) was “with the exception of the negatively charged molecules (glutamate and albumin)” and the “transport of positive, zwitterionic and neutral cargo into vesicles” value [3] was “transported all types of cargo (positive and neutral)”.

In the case of “(8-I-1,2-C2B9H10)-(1′2′-C2B9H11)-3,3′-Co^− [CS4]”, the “use as transporter / active cluster” value [1] is reported as “successfully used as active clusters”.

For (1,2-C2B9HO2-3,3′-Co^− [CS1], the “use as transporter / active cluster” value [1] was “successfully used as active clusters”.

With B10Br10^2− [B4] the “transport of positive, zwitterionic and neutral cargo into vesicles” value [3] was “same trends were reproduced in transport efficiency”.
